Test results as given in patent US20050239656A1, “Pyridine compounds or salts thereof and herbicides containing the same” (priority 2002, published 2005).

What follows are molecules tested on corn (assay: Test Example 2: soil surface treatment, upland pot test). Settings: active ingredient 500 g/ha, observed 20th to 28th day.
Assay type: in vivo, Zea mays L.
From the text: (§1) Upland field soil was put into a 1/170,000 ha pot, and seed of various plants (barnyardgrass, crabgrass, green foxtail, redroot pigweed, prickly sida, velvetleaf, rice, wheat, corn, soybean) were sown. On the 1st day after the sowing, a wettable powder or emulsifiable concentrate having the compound of the present invention formulated in accordance with a usual formulation method, was weighed so that the active ingredient would be a predetermined amount, and diluted with water in an amount of 1,500 L/ha. The herbicide thus adjusted was applied by a small size sprayer for soil surface treatment. On the 20th to 28th days after the application of the herbicide, the growth of the respective plants was visually observed, and the herbicidal effects were evaluated by the growth controlling degrees (%) ranging from 0 (equivalent to the non-treated plot) to 100 (complete kill), whereby the results shown in Table 4, were obtained.

SMILES | Growth controlling degree (%) Corn [%]
CC(C)C(c1cnccc1C(F)(F)F)N(C)C(=O)COc1ccccc1F (stereo not drawn) [Compound I-243] | 40
CCN(C(=O)Cc1ccc(Cl)cc1)C(c1cnccc1C(F)(F)F)C(C)C (stereo not drawn) [Compound I-100] | 30
CC=CC(=O)N(C)C(c1cnccc1C(F)(F)F)C(C)C (stereo not drawn) [I-180] | 10

The molecules below were run on prickly sida in the same assay as above. Settings: active ingredient 500 g/ha, observed 20th to 28th day.
Assay type: in vivo, Sida spinosa L.
From the text: as §1

SMILES | Growth controlling degree (%) Prickly sida [%]
CC(C)C(c1cnccc1C(F)(F)F)N(C)C(=O)COc1ccccc1F (stereo not drawn) [Compound I-243] | 90
CCN(C(=O)Cc1ccc(Cl)cc1)C(c1cnccc1C(F)(F)F)C(C)C (stereo not drawn) [Compound I-100] | 70
CC=CC(=O)N(C)C(c1cnccc1C(F)(F)F)C(C)C (stereo not drawn) [I-180] | 80

Each molecule was assayed on soybean in the same assay as above. Settings: active ingredient 500 g/ha, observed 20th to 28th day.
Assay type: in vivo, Glycine max Merr.
From the text: as §1

SMILES | Growth controlling degree (%) Soyabean [%]
CC(C)C(c1cnccc1C(F)(F)F)N(C)C(=O)COc1ccccc1F (stereo not drawn) [Compound I-243] | 10
CCN(C(=O)Cc1ccc(Cl)cc1)C(c1cnccc1C(F)(F)F)C(C)C (stereo not drawn) [Compound I-100] | 0
CC=CC(=O)N(C)C(c1cnccc1C(F)(F)F)C(C)C (stereo not drawn) [I-180] | 10

What follows are molecules tested on crabgrass in the same assay as above. Settings: active ingredient 500 g/ha, observed 20th to 28th day.
Assay type: in vivo, Digitaria sanguinalis L.
From the text: as §1

SMILES | Growth controlling degree (%) Crabgrass [%]
CC(C)C(c1cnccc1C(F)(F)F)N(C)C(=O)COc1ccccc1F (stereo not drawn) [Compound I-243] | 100
CCN(C(=O)Cc1ccc(Cl)cc1)C(c1cnccc1C(F)(F)F)C(C)C (stereo not drawn) [Compound I-100] | 98
CC=CC(=O)N(C)C(c1cnccc1C(F)(F)F)C(C)C (stereo not drawn) [I-180] | 100

What follows are molecules tested on japanese bulrush (assay: Test Example 3: paddy pot test, application under submerged conditions). Settings: active ingredient 250 g/ha; submerged application at 0.5 leaf stage; visually observed 14 days after application; 0 = non-treated, 100 = complete kill.
Assay type: in vivo, Scirpus juncoides
Outline: (§2)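 Paddy soil pots; seeds sown, lightly covered; flooded 0.5–1 cm in greenhouse; wapato tubers planted day 1–2; flood raised to 3–4 cm. Submerged pipette application at 0.5 leaf / primary leaf stage. Visual score day 14, 0–100%.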

SMILES | Growth controlling degree (%) Japanese bulrush [%]
CC(C)C(c1cnccc1C(F)(F)F)N(C)C(=O)COc1ccccc1F (stereo not drawn) [Compound I-243] | 98
CCN(C(=O)Cc1ccc(Cl)cc1)C(c1cnccc1C(F)(F)F)C(C)C (stereo not drawn) [Compound I-100] | 95

Same assay, conditions: active ingredient 500 g/ha; submerged application at 0.5 leaf stage; visually observed 14 days after application; 0 = non-treated, 100 = complete kill

SMILES | Growth controlling degree (%) Japanese bulrush [%]
CC=CC(=O)N(C)C(c1cnccc1C(F)(F)F)C(C)C (stereo not drawn) [I-180] | 100

Each molecule was assayed on japanese ribbon wapato in the same assay as above. Settings: active ingredient 250 g/ha; submerged application at primary leaf stage; visually observed 14 days after application; 0 = non-treated, 100 = complete kill.
Assay type: in vivo, Sagittaria pygniaea
Outline: as §2

SMILES | Growth controlling degree (%) Japanese ribbon wapato [%]
CC(C)C(c1cnccc1C(F)(F)F)N(C)C(=O)COc1ccccc1F (stereo not drawn) [Compound I-243] | 70
CCN(C(=O)Cc1ccc(Cl)cc1)C(c1cnccc1C(F)(F)F)C(C)C (stereo not drawn) [Compound I-100] | 30

Same assay, conditions: active ingredient 500 g/ha; submerged application at primary leaf stage; visually observed 14 days after application; 0 = non-treated, 100 = complete kill

SMILES | Growth controlling degree (%) Japanese ribbon wapato [%]
CC=CC(=O)N(C)C(c1cnccc1C(F)(F)F)C(C)C (stereo not drawn) [I-180] | 60

Each molecule was assayed on barnyardgrass (assay: Test Example 2: soil surface treatment, upland pot test). Settings: active ingredient 500 g/ha, observed 20th to 28th day.
Assay type: in vivo, Echinochloa crus-galli L.
From the text: as §1

SMILES | Growth controlling degree (%) Barnyardgrass [%]
CC(C)C(c1cnccc1C(F)(F)F)N(C)C(=O)COc1ccccc1F (stereo not drawn) [Compound I-243] | 90
CCN(C(=O)Cc1ccc(Cl)cc1)C(c1cnccc1C(F)(F)F)C(C)C (stereo not drawn) [Compound I-100] | 98
CC=CC(=O)N(C)C(c1cnccc1C(F)(F)F)C(C)C (stereo not drawn) [I-180] | 100

These molecules were tested on redroot pigweed in the same assay as above. Settings: active ingredient 500 g/ha, observed 20th to 28th day.
Assay type: in vivo, Amaranthus retroflexus L.
From the text: as §1

SMILES | Growth controlling degree (%) Redroot pigweed [%]
CC(C)C(c1cnccc1C(F)(F)F)N(C)C(=O)COc1ccccc1F (stereo not drawn) [Compound I-243] | 80
CCN(C(=O)Cc1ccc(Cl)cc1)C(c1cnccc1C(F)(F)F)C(C)C (stereo not drawn) [Compound I-100] | 10
CC=CC(=O)N(C)C(c1cnccc1C(F)(F)F)C(C)C (stereo not drawn) [I-180] | 80

These molecules were tested on rice (var. Nihonbare) (assay: Test Example 3: paddy pot test, transplanted rice). Settings: active ingredient 250 g/ha, applied 4th day after transplantation, visually observed 21st day after application, 0 = non-treated, 100 = complete kill.
Assay type: in vivo, Oryza sativa L.
Outline: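 Visual crop-injury rating (0 = as untreated, 100 = complete kill, %) taken 21 days post-application. Treatment: formulated compound, water-diluted, pipetted into 3–4 cm flood water at a preset active-ingredient dose, 4 days after transplanting 2-leaf Nihonbare rice 3 cm deep in puddled paddy soil.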

SMILES | Growth controlling degree (%) Rice [%]
CC(C)C(c1cnccc1C(F)(F)F)N(C)C(=O)COc1ccccc1F (stereo not drawn) [Compound I-243] | 0
CCN(C(=O)Cc1ccc(Cl)cc1)C(c1cnccc1C(F)(F)F)C(C)C (stereo not drawn) [Compound I-100] | 10

Same assay, conditions: active ingredient 500 g/ha, applied 4th day after transplantation, visually observed 21st day after application, 0 = non-treated, 100 = complete kill

SMILES | Growth controlling degree (%) Rice [%]
CC=CC(=O)N(C)C(c1cnccc1C(F)(F)F)C(C)C (stereo not drawn) [I-180] | 30

Each molecule was assayed on velvetleaf (assay: Test Example 2: soil surface treatment, upland pot test). Settings: active ingredient 500 g/ha, observed 20th to 28th day.
Assay type: in vivo, Abutilon theophrasti MEDIC.
From the text: as §1

SMILES | Growth controlling degree (%) Velvetleaf [%]
CC(C)C(c1cnccc1C(F)(F)F)N(C)C(=O)COc1ccccc1F (stereo not drawn) [Compound I-243] | 30
CCN(C(=O)Cc1ccc(Cl)cc1)C(c1cnccc1C(F)(F)F)C(C)C (stereo not drawn) [Compound I-100] | 10
CC=CC(=O)N(C)C(c1cnccc1C(F)(F)F)C(C)C (stereo not drawn) [I-180] | 50

What follows are molecules tested on green foxtail in the same assay as above. Settings: active ingredient 500 g/ha, observed 20th to 28th day.
Assay type: in vivo, Setaria viridis L.
From the text: as §1

SMILES | Growth controlling degree (%) Green foxtail [%]
CC(C)C(c1cnccc1C(F)(F)F)N(C)C(=O)COc1ccccc1F (stereo not drawn) [Compound I-243] | 100
CCN(C(=O)Cc1ccc(Cl)cc1)C(c1cnccc1C(F)(F)F)C(C)C (stereo not drawn) [Compound I-100] | 100
CC=CC(=O)N(C)C(c1cnccc1C(F)(F)F)C(C)C (stereo not drawn) [I-180] | 100

Each molecule was assayed on barnyardgrass (assay: Test Example 3: paddy pot test, application under submerged conditions). Settings: active ingredient 250 g/ha; submerged application at 0.5 leaf stage; visually observed 14 days after application; 0 = non-treated, 100 = complete kill.
Assay type: in vivo, Echinochloa crus-galli L.
Outline: as §2

SMILES | Growth controlling degree (%) Barnyardgrass [%]
CC(C)C(c1cnccc1C(F)(F)F)N(C)C(=O)COc1ccccc1F (stereo not drawn) [Compound I-243] | 100
CCN(C(=O)Cc1ccc(Cl)cc1)C(c1cnccc1C(F)(F)F)C(C)C (stereo not drawn) [Compound I-100] | 100

Same assay, conditions: active ingredient 500 g/ha; submerged application at 0.5 leaf stage; visually observed 14 days after application; 0 = non-treated, 100 = complete kill

SMILES | Growth controlling degree (%) Barnyardgrass [%]
CC=CC(=O)N(C)C(c1cnccc1C(F)(F)F)C(C)C (stereo not drawn) [I-180] | 98

The molecules below were run on rice (assay: Test Example 2: soil surface treatment, upland pot test). Settings: active ingredient 500 g/ha, observed 20th to 28th day.
Assay type: in vivo, Oryza sativa L.
From the text: as §1

SMILES | Growth controlling degree (%) Rice [%]
CC(C)C(c1cnccc1C(F)(F)F)N(C)C(=O)COc1ccccc1F (stereo not drawn) [Compound I-243] | 10
CCN(C(=O)Cc1ccc(Cl)cc1)C(c1cnccc1C(F)(F)F)C(C)C (stereo not drawn) [Compound I-100] | 30
CC=CC(=O)N(C)C(c1cnccc1C(F)(F)F)C(C)C (stereo not drawn) [I-180] | 50
